This note sets out measurements from patent publication US8637525B2, “Compounds for the reduction of beta-amyloid production” (Bristol-Myers Squibb Company, priority 2009, dated 2014).

This experiment has as its system Aβ1-42 production. The experiment can be described thus: Cellular assay for inhibition of Aβ1-42 production (H4 APP751 SWE clone 8.20). Particulars: H4 APP751 SWE clone 8.20 cells, 19 h incubation. Format: cell-based. In a few lines:
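Compound-treated cells were incubated 19 h at 37 °C in 5% CO2. Aβ42 in the cell plate was detected overnight at 4 °C with an Aβ42 neoepitope antibody (565, Wallac-labelled, 0.8 ng/well) plus N-terminal antibody 26D6 (APC, 75 ng/well) in 40 mM Tris-HCl pH 7.4, 0.2% BSA. IC50s came from curve fitting.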

[1] abbreviates: 19 h, class symbols, read-out: Activity Rating (Aβ42 cellular IC50).
The mark [2] stands for this setting: class symbols, read-out: Activity Rating (Aβ42 cellular IC50).
Where [3] appears, read: 19 h, read-out: Activity Rating (Aβ42 cellular IC50), numeric value.
Where [4] appears, read: read-out: Activity Rating (Aβ42 cellular IC50), numeric value.

SMILES strings stand for the structures. Read-outs that look alike come from different tables or passages of the source.

For the compound `CCNc1nc(Nc2ccc(-n3ncnc3C)c(F)c2)nc2c1COCC2c1ccc(F)cc1` (racemic) [Example 59, N4-ethyl-N2-(3-fluoro-4-(5-methyl-1H-1,2,4-triazol-1-yl)phenyl)-8-(4-fluorophenyl)-7,8-dihydro-5H-pyrano[4,3-d]pyrimidine-2,4-diamine], under setting [1], the IC50 lay in the range of 10 to 100 nM.
On the same count and under the same terms, next, `CCNc1nc(Nc2ccc(-n3cnc(C)n3)c(OC)c2)nc2c1COCC2c1ccc(F)cc1` (racemic) [Example 55, N4-ethyl-8-(4-fluorophenyl)-N2-(3-methoxy-4-(3-methyl-1H-1,2,4-triazol-1-yl)phenyl)-7,8-dihydro-5H-pyrano[4,3-d]pyrimidine-2,4-diamine]: 10 to 100 nM.
Turning to `CCN(C)c1nc(Nc2ccc(-n3cnc(Cl)c3)c(OC)c2)nc2c1CCC2c1ccccc1` (single isomer, unassigned) [Example 5B, N^2-(4-(4-chloro-1H-imidazol-1-yl)-3-methoxyphenyl)-N^4-ethyl-N^4-methyl-7-phenyl-6,7-dihydro-5H-cyclopenta[d]pyrimidine-2,4-diamine], the IC50 under setting [2] fell in the range of 10 to 100 nM.
As for `CNc1nc(Nc2ccc(-n3cnc(C)n3)c(F)c2)nc2c1CN(C)CC2c1ccccc1` (centres unmarked) [Example 149, N2-(3-fluoro-4-(3-methyl-1H-1,2,4-triazol-1-yl)phenyl)-N4,6-dimethyl-8-phenyl-5,6,7,8-tetrahydropyrido[4,3-d]pyrimidine-2,4-diamine], under setting [1], the IC50 was in the range of 10 to 100 nM.
In the case of `COc1cc(Nc2nc3c(c(N4CCC(N(C)C)C4)n2)CCC3c2ccc(F)cc2)ccc1-n1cnc(Cl)c1` (single isomer, unassigned) [Example 29A, N-(4-(4-chloro-1H-imidazol-1-yl)-3-methoxyphenyl)-4-(3-(dimethylamino)pyrrolidin-1-yl)-7-(4-fluorophenyl)-6,7-dihydro-5H-cyclopenta[d]pyrimidin-2-amine], the IC50 under setting [1] was in the range of 10 to 100 nM.
`COc1cc(Nc2nc3c(c(N4CCCC4C)n2)CCC3c2ccc(F)cc2)ccc1-n1cnc(Cl)c1` (single isomer, unassigned) [Example 20B, N-(4-(4-chloro-1H-imidazol-1-yl)-3-methoxyphenyl)-7-(4-fluorophenyl)-4-(2-methylpyrrolidin-1-yl)-6,7-dihydro-5H-cyclopenta[d]pyrimidin-2-amine]: the IC50 under setting [2] lay within 10 to 100 nM.
`CNc1nc(Nc2ccc(-n3cnc(C)n3)c(OC)c2)nc2c1CC[C@@H]2c1ccccc1OC` [Example 266B, (R)—N2-(3-methoxy-4-(3-methyl-1H-1,2,4-triazol-1-yl)phenyl)-7-(2-methoxyphenyl)-N4-methyl-6,7-dihydro-5H-cyclopenta[d]pyrimidine-2,4-diamine]: the IC50 under setting [1] lay within 10 to 100 nM.
As to `CNc1nc(Nc2ccc(Br)c(OC)c2)nc2c1CCC2c1ccccc1` (centres unmarked) [Example 256, N2-(4-bromo-3-methoxyphenyl)-N4-methyl-7-phenyl-6,7-dihydro-5H-cyclopenta[d]pyrimidine-2,4-diamine], the IC50 under setting [3] turned out to be 97 nM.
Consider `COc1cc(Nc2nc3c(c(N4CC(C)(OC)C4)n2)CCC3c2ccc(F)cc2)ccc1-n1cnc(C)n1` (centres unmarked) [Example 192, 7-(4-fluorophenyl)-4-(3-methoxy-3-methylazetidin-1-yl)-N-(3-methoxy-4-(3-methyl-1H-1,2,4-triazol-1-yl)phenyl)-6,7-dihydro-5H-cyclopenta[d]pyrimidin-2-amine], for which the IC50 under setting [4] was determined as 64 nM.
Turning to `CNc1nc(Nc2ccc(-n3cnc(Cl)c3)c(OC)c2)nc2c1COCC2c1ccc(F)cc1` (centres unmarked) [Example 60A, N2-(4-(4-chloro-1H-imidazol-1-yl)-3-methoxyphenyl)-8-(4-fluorophenyl)-N4-methyl-7,8-dihydro-5H-pyrano[4,3-d]pyrimidine-2,4-diamine], the IC50 under setting [3] turned out to be 5.6 nM.
For the compound `CNc1nc(Nc2ccc(-n3cnc(Cl)c3)c(OC)c2)nc2c1CCC2c1ccc(Cl)cc1` (racemic) [Example 94, N^2-(4-(4-Chloro-1H-imidazol-1-yl)-3-methoxyphenyl)-7-(4-chlorophenyl)-N^4-methyl-6,7-dihydro-5H-cyclopenta[d]pyrimidine-2,4-diamine], the IC50 under setting [1] lay within 1.5 to 9.9 nM.
Still for that read-out and setting: with `CNc1nc(Nc2ccc(C#N)cc2)nc2c1CCC2c1ccccc1` (centres unmarked) [Example 226, 4-(4-(methylamino)-7-phenyl-6,7-dihydro-5H-cyclopenta[d]pyrimidin-2-ylamino)benzonitrile] the figure was 100 to 1000 nM; with `CCNc1nc(Nc2ccc(-n3ncnc3C)c(F)c2)nc2c1CN(C)CC2c1ccccc1` (centres unmarked) [Example 153, N4-ethyl-N2-(3-fluoro-4-(5-methyl-1H-1,2,4-triazol-1-yl)phenyl)-6-methyl-8-phenyl-5,6,7,8-tetrahydropyrido[4,3-d]pyrimidine-2,4-diamine], 10 to 100 nM.
For `COc1cc(Nc2nc3c(c(N4CCC4)n2)CCC3c2ccccc2)ccc1-n1cnc(Cl)c1` (single isomer, unassigned) [Example 6B, 4-(azetidin-1-yl)-N-(4-(4-chloro-1H-imidazol-1-yl)-3-methoxyphenyl)-7-phenyl-6,7-dihydro-5H-cyclopenta[d]pyrimidin-2-amine], under setting [2], the IC50 was in the range of 10 to 100 nM.
Turning to `CNc1nc(Nc2ccc(-n3cnc(Cl)c3)c(OC)c2)nc2c1/C(=N/OC)CC2c1ccccc1` (centres unmarked) [Example 201A, (E)-2-(4-(4-chloro-1H-imidazol-1-yl)-3-methoxyphenylamino)-4-(methylamino)-7-phenyl-6,7-dihydro-5H-cyclopenta[d]pyrimidin-5-one O-methyl oxime], the IC50 under setting [4] is 10 nM.
On to `COc1cc(Nc2nc3c(c(N4CC[C@H](F)C4)n2)CCC3c2ccc(F)cc2)ccc1-n1cnc(Cl)c1` (single isomer, unassigned) [Example 36], for which, under setting [1], the IC50 was 10 to 100 nM.
Take `CCNc1nc(Nc2ccc(-n3cnc(Cl)c3)c(OC)c2)nc2c1CN(C(=O)COC)CC2c1ccccc1` (centres unmarked) [Example 133, 1-(2-(4-(4-chloro-1H-imidazol-1-yl)-3-methoxyphenylamino)-4-(ethylamino)-8-phenyl-7,8-dihydropyrido[4,3-d]pyrimidin-6(5H)-yl)-2-methoxyethanone]: under setting [2], the IC50 lay in the range of 10 to 100 nM.
Regarding `CNc1nc(Nc2ccc(-n3cnc(Cl)c3)c(OC)c2)nc2c1COCC2c1ccc(F)cc1` (racemic) [Example 60, N2-(4-(4-chloro-1H-imidazol-1-yl)-3-methoxyphenyl)-8-(4-fluorophenyl)-N4-methyl-7,8-dihydro-5H-pyrano[4,3-d]pyrimidine-2,4-diamine], the IC50 under setting [1] was in the range of 1.5 to 9.9 nM.
Consider `COc1cc(Nc2nc3c(c(N4CC(F)(F)C4)n2)CN(S(C)(=O)=O)CC3c2ccc(F)cc2)ccc1-n1cnc(Cl)c1` (centres unmarked) [Example 160, N-(4-(4-chloro-1H-imidazol-1-yl)-3-methoxyphenyl)-4-(3,3-difluoroazetidin-1-yl)-8-(4-fluorophenyl)-6-(methylsulfonyl)-5,6,7,8-tetrahydropyrido[4,3-d]pyrimidin-2-amine], for which the IC50 under setting [1] was 10 to 100 nM.
Regarding `CCNc1nc(Nc2ccc(-n3cnc(Cl)c3)c(OC)c2)nc2c1CCOC2c1ccc(F)cc1` (centres unmarked) [Example 88A, N2-(4-(4-chloro-1H-imidazol-1-yl)-3-methoxyphenyl)-N4-ethyl-8-(4-fluorophenyl)-6,8-dihydro-5H-pyrano[3,4-d]pyrimidine-2,4-diamine], the IC50 under setting [3] stood at 4.5 nM.
`CNc1nc(Nc2ccc(-n3cnc(Cl)c3)c(OC)c2)nc2c1C(O)CC2c1ccccc1` (centres unmarked) [Example 202, 2-(4-(4-chloro-1H-imidazol-1-yl)-3-methoxyphenylamino)-4-(methylamino)-7-phenyl-6,7-dihydro-5H-cyclopenta[d]pyrimidin-5-ol]: the IC50 under setting [1] was in the range of 1.5 to 9.9 nM.
For `CNc1nc(Nc2ccc(-n3cnc(C)n3)c(OC)c2)nc2c1CN(C)CC2c1ccc(F)cc1` (single isomer, unassigned) [Example 198A, 8-(4-fluorophenyl)-N2-(3-methoxy-4-(3-methyl-1H-1,2,4-triazol-1-yl)phenyl)-N4,6-dimethyl-5,6,7,8-tetrahydropyrido[4,3-d]pyrimidine-2,4-diamine], the IC50 under setting [2] fell in the range of 100 to 1000 nM.
As to `COc1cc(Nc2nc(N[C@H](C)C3CC3)c3c(n2)C(c2ccc(F)cc2)CC3)ccc1-n1cnc(Cl)c1` (single isomer, unassigned) [Example 49B], under setting [2], the IC50 lay within 10 to 100 nM.
As to `CNc1nc(Nc2ccncc2)nc2c1CCC2c1ccccc1` (centres unmarked) [Example 224, N4-methyl-7-phenyl-N2-(pyridin-4-yl)-6,7-dihydro-5H-cyclopenta[d]pyrimidine-2,4-diamine], the IC50 under setting [1] was more than 1000 nM.
With `CNc1nc(Nc2ccc(C#N)nc2)nc2c1CCC2c1ccccc1` (centres unmarked) [Example 230, 5-(4-(methylamino)-7-phenyl-6,7-dihydro-5H-cyclopenta[d]pyrimidin-2-ylamino)picolinonitrile], the IC50 under setting [3] came to 42 nM.
In the case of `COc1cc(Nc2nc3c(c(N4CC(F)C4)n2)CCC3c2ccccc2)ccc1-n1cnc(Cl)c1` (centres unmarked) [Example 182B, N-(4-(4-chloro-1H-imidazol-1-yl)-3-methoxyphenyl)-4-(3-fluoroazetidin-1-yl)-7-phenyl-6,7-dihydro-5H-cyclopenta[d]pyrimidin-2-amine], the IC50 under setting [2] was 10 to 100 nM.
On the same count and under the same terms, next, `CCNc1nc(Nc2ccc(-n3cnc(Cl)c3)c(OC)c2)nc2c1CN(S(=O)(=O)CC)CC2c1ccccc1` (centres unmarked) [Example 138A, N2-(4-(4-chloro-1H-imidazol-1-yl)-3-methoxyphenyl)-N4-ethyl-6-(ethylsulfonyl)-8-phenyl-5,6,7,8-tetrahydropyrido[4,3-d]pyrimidine-2,4-diamine]: 1.5 to 9.9 nM.
On to `COc1cc(Nc2nc3c(c(N4C[C@@H](C)O[C@@H](C)C4)n2)CCC3c2ccc(F)cc2)ccc1-n1cnc(Cl)c1` (some centres unmarked) [Example 21], for which the IC50 under setting [1] lay within 10 to 100 nM.
Still for that read-out and setting: next, `CCNc1nc(Nc2ccc(-n3cnc(Cl)c3)c(OC)c2)nc2c1COCC2c1ccc(F)cc1` (racemic) [Example 56, N2-(4-(4-chloro-1H-imidazol-1-yl)-3-methoxyphenyl)-N4-ethyl-8-(4-fluorophenyl)-7,8-dihydro-5H-pyrano[4,3-d]pyrimidine-2,4-diamine]: 10 to 100 nM.
